Values quoted from earlier work in patent publication US8460687B1, “Peeling compositions” (Cosmoceutical Research Center, priority 2009, dated 2013).
Where two headings read alike, the source gives them in different places.

O=P(O)(O)O[C@H]1[C@H](OP(=O)(O)O)[C@@H](OP(=O)(O)O)[C@H](OP(=O)(O)O)[C@@H](OP(=O)(O)O)[C@H]1OP(=O)(O)O [Phytic acid, inisitol hexakisphosphate]
pH of aqueous solution (0.66 g/l): 2.68
pH of aqueous solution (66 g/l): 0.9
